According to ChEMBL document CHEMBL1136470, “Rational design, synthesis and structure-activity relationships of a cyclic succinate series of TNF-alpha converting enzyme inhibitors. Part 1: lead identification” (Bioorg Med Chem Lett, 2003):
pIC50, pKi: −log10 of the molar value.

Legend:
[1] = species: Homo sapiens; assay: Compound tested for the in vitro inhibition of TNF-alpha production was determined by using LPS-stimulated human whole blood assay (WBA); assay type: functional
[2] = biological target: T1, Interstitial collagenase (Homo sapiens, UniProt P03956); assay: Inhibition of matrix metalloprotease-1 (MMP-1)
T1 sequence (P03956 whole entry): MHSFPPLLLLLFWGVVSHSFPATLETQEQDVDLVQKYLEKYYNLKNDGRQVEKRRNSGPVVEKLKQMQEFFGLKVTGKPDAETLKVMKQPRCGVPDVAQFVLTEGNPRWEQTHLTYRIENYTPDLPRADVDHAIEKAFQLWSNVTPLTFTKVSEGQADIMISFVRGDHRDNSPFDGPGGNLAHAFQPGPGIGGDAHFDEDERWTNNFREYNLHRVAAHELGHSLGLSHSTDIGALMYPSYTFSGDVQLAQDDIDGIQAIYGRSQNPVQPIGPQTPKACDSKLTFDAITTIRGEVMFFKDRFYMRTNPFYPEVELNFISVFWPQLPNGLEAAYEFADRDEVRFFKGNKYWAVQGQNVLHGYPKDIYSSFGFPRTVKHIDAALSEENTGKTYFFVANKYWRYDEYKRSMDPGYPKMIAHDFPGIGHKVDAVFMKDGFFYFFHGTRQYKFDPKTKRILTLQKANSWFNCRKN

[3] = Inhibition of aggrecanase
[4] = biological target: Matrix metalloproteinase-9 (Homo sapiens, UniProt P14780); assay: Inhibition of matrix metalloprotease-9 (MMP-9)
[5] = biological target: Disintegrin and metalloproteinase domain-containing protein 17 (Sus scrofa, UniProt O77636); assay: Inhibition of porcine TACE
[6] = biological target: 72 kDa type IV collagenase (Homo sapiens, UniProt P08253); assay: Inhibition of matrix metalloprotease-2 (MMP-2)
Chain of 72 kDa type IV collagenase (P08253 whole entry): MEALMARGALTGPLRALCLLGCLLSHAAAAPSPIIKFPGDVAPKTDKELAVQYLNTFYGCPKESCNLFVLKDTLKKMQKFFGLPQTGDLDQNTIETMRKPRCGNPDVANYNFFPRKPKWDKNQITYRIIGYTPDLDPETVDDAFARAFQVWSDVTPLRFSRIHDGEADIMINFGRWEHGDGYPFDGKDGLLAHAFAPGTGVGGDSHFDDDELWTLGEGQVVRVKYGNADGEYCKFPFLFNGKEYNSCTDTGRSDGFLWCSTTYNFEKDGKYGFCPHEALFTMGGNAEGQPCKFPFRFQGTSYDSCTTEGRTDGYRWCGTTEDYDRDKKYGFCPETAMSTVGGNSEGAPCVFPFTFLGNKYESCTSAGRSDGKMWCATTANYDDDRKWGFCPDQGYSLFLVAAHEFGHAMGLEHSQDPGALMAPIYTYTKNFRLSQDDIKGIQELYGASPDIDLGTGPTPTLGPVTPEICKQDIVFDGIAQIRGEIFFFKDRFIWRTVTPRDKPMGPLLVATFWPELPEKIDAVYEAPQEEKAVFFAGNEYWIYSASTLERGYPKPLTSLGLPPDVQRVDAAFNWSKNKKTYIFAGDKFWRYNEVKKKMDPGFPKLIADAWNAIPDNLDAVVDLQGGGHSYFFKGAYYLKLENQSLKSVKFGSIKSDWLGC

Chain of Disintegrin and metalloproteinase domain-containing protein 17 (O77636 whole entry, the tested form may be a part): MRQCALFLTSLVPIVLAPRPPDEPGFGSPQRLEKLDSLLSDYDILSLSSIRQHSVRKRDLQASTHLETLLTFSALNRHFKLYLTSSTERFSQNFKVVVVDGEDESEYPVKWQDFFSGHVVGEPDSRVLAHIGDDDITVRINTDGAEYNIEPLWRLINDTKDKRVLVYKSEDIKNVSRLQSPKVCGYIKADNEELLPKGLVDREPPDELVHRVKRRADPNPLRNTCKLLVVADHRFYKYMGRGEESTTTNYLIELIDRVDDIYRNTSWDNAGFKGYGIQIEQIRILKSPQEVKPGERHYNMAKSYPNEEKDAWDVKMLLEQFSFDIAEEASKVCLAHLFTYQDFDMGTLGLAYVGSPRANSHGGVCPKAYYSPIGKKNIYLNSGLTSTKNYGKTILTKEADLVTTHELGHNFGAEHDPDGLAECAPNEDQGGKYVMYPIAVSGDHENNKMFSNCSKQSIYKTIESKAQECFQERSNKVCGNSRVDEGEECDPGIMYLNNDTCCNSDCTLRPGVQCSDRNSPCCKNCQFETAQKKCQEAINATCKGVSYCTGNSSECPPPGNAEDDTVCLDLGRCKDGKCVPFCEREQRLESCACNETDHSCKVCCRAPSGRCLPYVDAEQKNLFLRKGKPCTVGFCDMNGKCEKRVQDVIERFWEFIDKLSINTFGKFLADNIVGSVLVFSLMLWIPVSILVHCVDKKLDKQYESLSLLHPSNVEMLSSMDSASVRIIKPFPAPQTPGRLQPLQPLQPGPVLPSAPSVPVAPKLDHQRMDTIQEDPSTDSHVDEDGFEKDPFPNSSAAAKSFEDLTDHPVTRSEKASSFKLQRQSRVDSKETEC
Chain of Matrix metalloproteinase-9 (P14780 whole entry, the tested form may be a part): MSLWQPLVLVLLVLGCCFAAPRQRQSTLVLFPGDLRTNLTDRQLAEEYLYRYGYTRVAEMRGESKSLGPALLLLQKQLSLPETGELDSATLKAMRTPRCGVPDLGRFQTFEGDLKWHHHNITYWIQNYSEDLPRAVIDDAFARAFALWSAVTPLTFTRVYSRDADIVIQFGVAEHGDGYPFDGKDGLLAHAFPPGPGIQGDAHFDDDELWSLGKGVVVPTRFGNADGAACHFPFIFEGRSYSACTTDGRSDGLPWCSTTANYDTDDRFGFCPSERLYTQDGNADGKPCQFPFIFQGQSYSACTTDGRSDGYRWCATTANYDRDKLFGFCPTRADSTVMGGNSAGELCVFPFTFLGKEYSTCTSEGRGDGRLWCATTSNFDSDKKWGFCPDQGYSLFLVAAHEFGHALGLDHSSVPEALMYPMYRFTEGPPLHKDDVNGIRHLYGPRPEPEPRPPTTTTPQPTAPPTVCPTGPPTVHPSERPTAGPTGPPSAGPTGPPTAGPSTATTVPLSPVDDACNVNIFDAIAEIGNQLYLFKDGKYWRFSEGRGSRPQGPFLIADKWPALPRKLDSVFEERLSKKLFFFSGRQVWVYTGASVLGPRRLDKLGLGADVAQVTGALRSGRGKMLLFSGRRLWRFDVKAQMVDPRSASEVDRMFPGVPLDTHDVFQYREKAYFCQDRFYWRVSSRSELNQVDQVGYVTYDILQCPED

Work on `O=C(NO)[C@H]1CCCC[C@@H]1C(=O)Nc1ccc(OCc2ccccc2)cc1` yielded a pIC50 [1] of under 4.30, a pKi [2] of under 5.31 and a pKi [3] of under 6.30. It also gave a pKi [4] of under 5.67, a pIC50 [5] of 7.05 and a pKi [6] of under 5.48.

For `O=C(NO)[C@H]1CCCC[C@@H]1C(=O)Nc1ccc(COc2ccc3ncccc3c2)cc1`, the pIC50 [1] was under 4.30, the pKi [2] was under 5.31 and the pKi [3] was under 6.30. For the same compound, the pKi [4] was 6.06, the pIC50 [5] was 7.25 and the pKi [6] was 5.97.

For `O=C(NO)[C@H]1CCCC[C@@H]1C(=O)Nc1ccc(C#Cc2ccc3ncccc3c2)cc1`, the pIC50 [1] was under 4.30, the pKi [2] was under 5.31 and the pKi [3] was under 6.30. The pKi [4] was under 5.67, the pIC50 [5] was 5.14 and the pKi [6] was under 5.48.

With `O=C(NO)[C@H]1CCC[C@@H]1C(=O)Nc1ccc(OCc2ccccc2)cc1` the pIC50 [1] was under 4.30, the pKi [2] was under 5.31 and the pKi [3] was under 6.30. The pKi [4] was under 5.67, the pIC50 [5] was 6.96 and the pKi [6] was under 5.48.

Compound `O=C(NO)[C@H]1CCCC[C@@H]1C(=O)Nc1ccc(COc2cccc3ncccc23)cc1` has a pIC50 [1] of under 4.30, a pKi [2] of under 5.31 and a pKi [3] of under 6.30. For the same compound, the pKi [4] was 5.87, the pIC50 [5] was 7.35 and the pKi [6] was 6.23.

Work on `O=C(NO)[C@H]1CCC[C@@H]1C(=O)Nc1ccc(Cc2ccncc2)cc1` yielded a pIC50 [1] of under 4.30, a pKi [2] of under 5.31 and a pKi [3] of under 6.30. It also gave a pKi [4] of under 5.67, a pIC50 [5] of 6.68 and a pKi [6] of 6.17.

Compound `O=C(NO)[C@H]1CCCC[C@@H]1C(=O)Nc1ccc(COc2ccnc3ccccc23)cc1` has a pIC50 [1] of under 4.30, a pKi [2] of under 5.31 and a pKi [3] of under 6.30. It also gave a pKi [4] of under 5.67, a pIC50 [5] of 8.10 and a pKi [6] of under 5.48.

`O=C1NCCCC[C@@H](C(=O)NCC(=O)N2CCOCC2)NC(=O)[C@H](Cc2ccc(-c3ccccc3C(F)(F)F)cc2)[C@@H](C(=O)NO)CCCO1` showed a pIC50 [1] of under 7.15, a pKi [2] of under 5.70 and a pKi [4] of under 5.70. The pKi [6] was under 5.70.

Work on `O=C(NO)[C@H]1CCC[C@@H]1C(=O)Nc1ccc(OCc2ccncc2)cc1` yielded a pIC50 [1] of under 4.30, a pKi [2] of under 5.31 and a pKi [3] of under 6.30. The pKi [4] was under 5.67, the pIC50 [5] was 6.21 and the pKi [6] was under 5.48.

In the case of `O=C(NO)[C@H]1CCC[C@@H]1C(=O)Nc1ccc(COc2ccnc3ccccc23)cc1`, the pIC50 [1] was under 4.30, the pKi [2] was under 5.31 and the pKi [3] was under 6.30. The pKi [4] was under 5.67, the pIC50 [5] was 7.41 and the pKi [6] was under 5.48.

`O=C(NO)[C@H]1CCC[C@@H]1C(=O)Nc1ccc(OCc2cc(Cl)cc(Cl)c2)cc1` gave a pIC50 [1] of under 4.30, a pKi [2] of under 5.31 and a pKi [3] of under 6.30. For the same compound, the pKi [4] was under 5.67, the pIC50 [5] was 7.28 and the pKi [6] was under 5.48.
